Key:
human CaR = target: T1, human CaR (Homo sapiens, UniProt P41180); assay: Agonistic activity studies with HEK293 cells stably expressing human CaR (cytoplasmic Ca2+ concentration); format: cell-based; conditions: hCaR-HEK293 cells
T1 construct: expressed in transfected cells
T1 sequence (P41180 20-1078): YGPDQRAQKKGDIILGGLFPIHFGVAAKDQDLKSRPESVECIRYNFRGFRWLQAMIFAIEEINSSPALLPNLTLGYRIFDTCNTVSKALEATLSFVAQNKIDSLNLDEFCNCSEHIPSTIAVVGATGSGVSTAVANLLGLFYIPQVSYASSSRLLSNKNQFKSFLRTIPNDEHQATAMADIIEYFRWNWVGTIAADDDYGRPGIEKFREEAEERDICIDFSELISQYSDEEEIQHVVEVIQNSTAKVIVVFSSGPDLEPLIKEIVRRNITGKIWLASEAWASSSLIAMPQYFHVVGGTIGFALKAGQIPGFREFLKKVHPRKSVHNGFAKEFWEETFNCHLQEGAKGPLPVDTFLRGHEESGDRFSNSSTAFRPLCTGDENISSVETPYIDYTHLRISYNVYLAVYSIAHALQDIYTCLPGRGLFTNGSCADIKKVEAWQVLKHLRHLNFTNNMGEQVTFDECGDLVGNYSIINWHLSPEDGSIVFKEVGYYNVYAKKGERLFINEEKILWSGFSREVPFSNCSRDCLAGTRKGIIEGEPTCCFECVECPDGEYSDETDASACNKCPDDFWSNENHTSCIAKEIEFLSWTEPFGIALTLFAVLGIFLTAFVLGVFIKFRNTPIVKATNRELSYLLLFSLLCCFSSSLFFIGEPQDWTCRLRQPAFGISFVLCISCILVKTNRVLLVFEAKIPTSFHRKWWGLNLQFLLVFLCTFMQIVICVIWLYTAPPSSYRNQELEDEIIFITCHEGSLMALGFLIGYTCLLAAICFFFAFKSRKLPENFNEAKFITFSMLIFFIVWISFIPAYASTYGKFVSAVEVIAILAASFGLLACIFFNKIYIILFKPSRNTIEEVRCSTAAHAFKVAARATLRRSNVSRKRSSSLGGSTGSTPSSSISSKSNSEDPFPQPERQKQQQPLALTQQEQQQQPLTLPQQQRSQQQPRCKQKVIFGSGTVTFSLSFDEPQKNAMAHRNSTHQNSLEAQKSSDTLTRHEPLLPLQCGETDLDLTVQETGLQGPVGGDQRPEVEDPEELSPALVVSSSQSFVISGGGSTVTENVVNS
Description: HEK 293 cell is obtained from Summit Pharmaceuticals International Corporation (ATCC® Number: CRL-1573^TM). The HindIII-XhoI fragment of the human CaR cDNA was subcloned into the mammalian expression vector pcDNA3.1/Hygro (+) (Invitrogen) containing the hygromycin resistance gene as a selectable marker. This plasmid was transfected into HEK 293 cells by lipofection. The transfected cells were grown in DMEM containing 10% fetal bovine serum and hygromycin B ([…]) in 96 well plate. Hygromycin-resistant colonies were subcloned and assayed for hCaR mRNA by quantitative RT-PCR. The stably transfected cell line was then selected and used for agonistic activity studies.
Evocalcet was dissolved in dimethyl sulfoxide (DMSO) and diluted with HEPES buffer for the preparation of cells. Evocalcet solutions (3~30000 nM, 9-point concentrations) were added to a 96-well plate, and a suspension of HEK293 cells stably transfected with the human CaR was then seeded onto the plate. The ratio with the fluorescence intensity was determined continuously with a multi-label plate reader. To evaluate the agonistic activity pattern of evocalcet, calcium solutions in each concentration were added after the addition of evocalcet solutions to the plate.
The transient changes in the cytoplasmic calcium concentration (Δ[Ca^2+]i) induced by receptor activation were measured. (A) The effect of evocalcet on the Δ[Ca^2+]i value in hCaR-HEK293 cells. (B) The effect of evocalcet on the response rates elicited by increasing the extracellular calcium level in hCaR-HEK293 cells. The response rate was calculated using the following formula: Responserate(%)=Δ[Ca^2+]i/MaxΔ[Ca^2+]i×100 Δ[Ca^2+]i: Subtraction of basal [Ca^2+]i from maximum [Ca^2+]i observed after addition of evocalcet; Max Δ[Ca^2+]i: Δ[Ca^2+]i at the maximum Ca concentration (3 mmol/L).

CYP2C9 = target: T2, CYP2C9 (Homo sapiens, UniProt P11712); assay: CYP inhibition assay in human liver microsomes; format: in vitro ADME; conditions: no pre-incubation, read-out: IC50 direct inhibition of CYP2C9
T2 construct: from tissue; host or cells: human liver microsomes
Description: (§1) Each CYP substrate was incubated with human liver microsomes in the absence or presence of evocalcet, and the inhibition of evocalcet for each CYP isozyme was measured.

CYP1A2 = target: T3, CYP1A2 (Homo sapiens, UniProt P05177); assay: CYP inhibition assay in human liver microsomes; format: in vitro ADME; conditions: no pre-incubation, read-out: IC50 direct inhibition of CYP1A2
T3 sequence (P05177 1-516): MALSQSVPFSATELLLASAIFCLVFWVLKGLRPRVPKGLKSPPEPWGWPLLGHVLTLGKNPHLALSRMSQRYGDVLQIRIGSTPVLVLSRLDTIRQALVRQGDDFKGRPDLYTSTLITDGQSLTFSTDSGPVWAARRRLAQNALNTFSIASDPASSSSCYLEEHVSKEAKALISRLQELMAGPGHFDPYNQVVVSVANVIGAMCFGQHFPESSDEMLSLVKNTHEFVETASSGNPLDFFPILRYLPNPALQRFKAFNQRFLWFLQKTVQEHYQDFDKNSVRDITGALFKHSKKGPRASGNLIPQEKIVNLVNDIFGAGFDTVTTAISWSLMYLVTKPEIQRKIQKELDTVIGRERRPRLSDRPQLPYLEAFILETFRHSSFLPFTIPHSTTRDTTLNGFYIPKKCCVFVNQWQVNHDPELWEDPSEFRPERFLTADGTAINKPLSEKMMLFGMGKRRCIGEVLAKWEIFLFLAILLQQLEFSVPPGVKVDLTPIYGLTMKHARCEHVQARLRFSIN
Description: as §1

T2 sequence (P11712 whole entry): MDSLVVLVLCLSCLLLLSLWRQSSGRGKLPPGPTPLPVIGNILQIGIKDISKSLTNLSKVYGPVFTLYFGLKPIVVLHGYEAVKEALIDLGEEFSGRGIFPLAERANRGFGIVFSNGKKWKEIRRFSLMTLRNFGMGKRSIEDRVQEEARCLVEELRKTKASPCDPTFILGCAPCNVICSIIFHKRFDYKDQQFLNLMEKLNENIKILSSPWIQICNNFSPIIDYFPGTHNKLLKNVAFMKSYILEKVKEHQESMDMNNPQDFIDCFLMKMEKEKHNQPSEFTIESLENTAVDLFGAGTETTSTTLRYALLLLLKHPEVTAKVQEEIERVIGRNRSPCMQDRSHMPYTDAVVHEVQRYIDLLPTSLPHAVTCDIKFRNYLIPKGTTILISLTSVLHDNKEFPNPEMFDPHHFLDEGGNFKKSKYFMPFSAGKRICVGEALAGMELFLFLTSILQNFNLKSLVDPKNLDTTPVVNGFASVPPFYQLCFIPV

Compound: C[C@@H](N[C@H]1CCN(c2ccc(CC(=O)O)cc2)C1)c1cccc2ccccc12 [evocalcet]
- Δ[Ca^2+]i (human CaR; evocalcet 3 nmol/L): 1.94 nmol/L
- Δ[Ca^2+]i (human CaR; evocalcet 10 nmol/L): 6.18 nmol/L
- Response rate (human CaR; evocalcet 20 nmol/L, Ca concentration 0.25 mmol/L): 0%
- Response rate (human CaR; evocalcet 20 nmol/L, Ca concentration 0.3 mmol/L): 0%
- Response rate (human CaR; evocalcet 20 nmol/L, Ca concentration 0.6 mmol/L): 0.26%
- Response rate (human CaR; evocalcet 20 nmol/L, Ca concentration 0.9 mmol/L): 4.69%
- Response rate (human CaR; evocalcet 20 nmol/L, Ca concentration 1.2 mmol/L): 16.07%
- Response rate (human CaR; evocalcet 20 nmol/L, Ca concentration 1.5 mmol/L): 33.31%
- Response rate (human CaR; evocalcet 20 nmol/L, Ca concentration 1.8 mmol/L): 52.75%
- Response rate (human CaR; evocalcet 20 nmol/L, Ca concentration 2.1 mmol/L): 70.47%
- Response rate (human CaR; evocalcet 20 nmol/L, Ca concentration 2.4 mmol/L): 84.37%
- Response rate (human CaR; evocalcet 20 nmol/L, Ca concentration 2.7 mmol/L): 94.54%
- Response rate (human CaR; evocalcet 20 nmol/L, Ca concentration 3.0 mmol/L (maximum, reference)): 100%
- Δ[Ca^2+]i (human CaR; evocalcet 30 nmol/L): 17.71 nmol/L
- Response rate (human CaR; evocalcet 60 nmol/L, Ca concentration 0.25 mmol/L): 0%
- Response rate (human CaR; evocalcet 60 nmol/L, Ca concentration 0.3 mmol/L): 0%
- Response rate (human CaR; evocalcet 60 nmol/L, Ca concentration 0.6 mmol/L): 3.76%
- Response rate (human CaR; evocalcet 60 nmol/L, Ca concentration 0.9 mmol/L): 16.86%
- Response rate (human CaR; evocalcet 60 nmol/L, Ca concentration 1.2 mmol/L): 33.15%
- Response rate (human CaR; evocalcet 60 nmol/L, Ca concentration 1.5 mmol/L): 53.86%
- Response rate (human CaR; evocalcet 60 nmol/L, Ca concentration 1.8 mmol/L): 70.14%
- Response rate (human CaR; evocalcet 60 nmol/L, Ca concentration 2.1 mmol/L): 81.77%
- Response rate (human CaR; evocalcet 60 nmol/L, Ca concentration 2.4 mmol/L): 88.98%
- Response rate (human CaR; evocalcet 60 nmol/L, Ca concentration 2.7 mmol/L): 92.99%
- Response rate (human CaR; evocalcet 60 nmol/L, Ca concentration 3.0 mmol/L (maximum, reference)): 100%
- Δ[Ca^2+]i (human CaR; evocalcet 100 nmol/L): 50.62 nmol/L
- Δ[Ca^2+]i (human CaR; evocalcet 300 nmol/L): 71.35 nmol/L
- Δ[Ca^2+]i (human CaR; evocalcet 1000 nmol/L): 70.70 nmol/L
- Δ[Ca^2+]i (human CaR; evocalcet 3000 nmol/L): 75.59 nmol/L
- Δ[Ca^2+]i (human CaR; evocalcet 10000 nmol/L): 78.61 nmol/L
- Δ[Ca^2+]i (human CaR; evocalcet 30000 nmol/L): 77.66 nmol/L
- EC50 (human CaR; read-out: EC50 for [Ca^2+]i): 0.0927 µM
- IC50 (CYP2C9): > 50 µM
- IC50 (CYP1A2): > 50 µM

— paper PMC5882164, “A novel calcimimetic agent, evocalcet (MT-4580/KHK7580), suppresses the parathyroid cell function with little effect on the gastrointestinal tract or CYP isozymes in vivo and in vitro” (PLoS ONE, 2018)
